This is an account of results in US20080311048A1, “Imaging Agent” (ISIS INNOVATION LTD., priority 2005, published 2008).

This experiment relates to left hemisphere of rat brains injected with Interleukin-1β (selectin expression). Kind of experiment: MRI scans of rat brains after interleukin-1β injection into the left hemisphere. The note with it: in vivo. As for the experimental part:
The magnetic particles of the present invention can be used in a number of different methods. In particular, sugars conjugated to ultra small super paramagnetic iron oxide provide more sensitive detection of cerebroendothelial cell activation than know contrast agents such as Gd-DTPA-B(sLEex)A. In particular conjugated magnetic particles in accordance with the present invention were used in MRI scans. Interleukin-1β was injected into the left hemisphere of rat brains. Interleukin beta was used to induce an inflammatory response in the left hemispheres. All samples were subjected to MRI scans. Controls were carried out using Gd alone, or superparamagnetic particles alone. Two different conjugates, one of which having a disaccharide and one of which having Sialyl Lewis X, both in accordance with the present invention were tested. […] The control with Gd (shown in FIG. 2) confirmed that there was no breakdown of the blood brain barrier. […] Thus, the conjugates of the present invention allowed imaging of the areas of the brain that had been injected with interleukin-1β, and which would be expected to show greater levels of selectin expression.

Take Sialyl Lewis X: the “MRI scan: asymmetry between left and right cranial hemispheres” value is “asymmetry, being darker in the left hemisphere than the right”.
